IC50 data for five compounds are collected here from patent publication US20240409585A1, “MACROCYCLIC IMMUNOMODULATORS” (priority 2021, published 2024).

Molecules are shown by their SMILES. Bridge positions count the residues as written; N and C are the ends. Square brackets hold non-standard residues; d marks the D form. Peptide text beside a SMILES is read from it. * marks the point of attachment. ξ: configuration not given here. Tyr(3,5-Br2) = N[C@@H](Cc1cc(Br)c(O)c(Br)c1)C(=O)O; Phe(4-COOH) = N[C@@H](Cc1ccc(C(=O)O)cc1)C(=O)O; Bip = N[C@@H](Cc1ccc(-c2ccccc2)cc1)C(=O)O; Phe(3-Me) = Cc1cccc(C[C@H](N)C(=O)O)c1; Val(3-OH) = CC(C)(O)[C@H](N)C(=O)O; 4Pal = N[C@@H](Cc1ccncc1)C(=O)O; Cha = N[C@@H](CC1CCCCC1)C(=O)O; Cit = NC(=O)NCCC[C@H](N)C(=O)O; Thr(3ξ) = CC(O)[C@H](N)C(=O)O; Pip = O=C(O)[C@@H]1CCCCN1; Carboxymethyl = O=C(O)C*; NMeA = CN[C@@H](C)C(=O)O; Dab = NCC[C@H](N)C(=O)O; Dap = NC[C@H](N)C(=O)O

T1 sequence (Q15116 25-288): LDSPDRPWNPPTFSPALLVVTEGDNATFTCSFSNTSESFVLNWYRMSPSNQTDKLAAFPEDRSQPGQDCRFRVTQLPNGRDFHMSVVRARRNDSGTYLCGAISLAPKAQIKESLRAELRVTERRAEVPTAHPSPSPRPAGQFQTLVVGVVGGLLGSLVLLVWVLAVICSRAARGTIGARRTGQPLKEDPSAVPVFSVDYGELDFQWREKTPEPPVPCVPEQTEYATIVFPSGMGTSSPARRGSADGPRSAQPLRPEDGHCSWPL

This assay has as its target T1, PE-labeled human PD-L1-Ig binding to Jurkat cell line over-expressing human PD-1 (Jurkat-PD-1) (Homo sapiens, UniProt Q15116).
T1 construct: expressed in transfected cells; host or cells: Jurkat
As to the kind of experiment: Jurkat-PD-1 Cell Binding High-Content Screening Assay (CBA): Method 1. Conditions: Jurkat-hPD-1 cells, PE-labeled PD-L1-Ig 20 nM final; read-out: Jurkat HPDL1 PD1 IC50 (uM) (Method 1).
Consider `CC(C)C[C@@H]1NC(=O)[C@H](CCCNC(=N)N)NC(=O)[C@@H](CC(C)C)NC(=O)[C@H](C)N(C)C(=O)[C@H](CCCNC(=N)N)NC(=O)[C@H](Cc2ccc(-c3ccccc3)cc2)NC(=O)[C@H](C(C)C)NC(=O)[C@H](Cc2c[nH]c3ccccc23)NC(=O)[C@H](CC(=O)O)NC(=O)[C@H](Cc2cc(Br)c(O)c(Br)c2)NC(=O)[C@H](Cc2ccccc2)NC(=O)CSC[C@@H](C(=O)N[C@@H](C)C(N)=O)NC(=O)[C@H]([C@@H](C)O)NC(=O)[C@H](C(C)C)NC1=O` [Compound 1092] ({CH2CO}-F[Tyr(3,5-Br2)]DWV[Bip]R[NMeA][dL]RLVTCA-NH2; thioether N-14), for which the IC50 was 0.42 µM.

In the case of `Cc1cccc(C[C@@H]2NC(=O)[C@H](CC(=O)O)NC(=O)[C@H](Cc3ccc(C(=O)O)cc3)NC(=O)[C@H](C(C)O)NC(=O)CSC[C@@H](C(=O)N[C@H](C(N)=O)C(C)(C)O)NC(=O)[C@H](CO)NC(=O)[C@H](C(C)(C)O)NC(=O)[C@H](CC3CCCCC3)NC(=O)[C@H](CCN)NC(=O)[C@@H](CC(C)C)NC(=O)[C@H](C)N(C)C(=O)[C@H](Cc3ccc(OCC(=O)O)cc3)NC(=O)[C@H](Cc3ccc(-c4ccccc4)cc3)NC(=O)[C@H](Cc3ccc(OCC(=O)O)cc3)NC2=O)c1` (stereo partly drawn) [Compound 2202] ({CH2CO}-[Thr(3ξ)][Phe(4-COOH)]D[Phe(3-Me)]Y(Carboxymethyl)[Bip]Y(Carboxymethyl)[NMeA][dL][Dab][Cha][Val(3-OH)]SC[Val(3-OH)]-NH2; thioether N-14), the concentration for half-maximal inhibition (IC50) came to 0.5 µM.

With `Cc1cccc(C[C@@H]2NC(=O)[C@H](CC(=O)O)NC(=O)[C@H](Cc3ccc(OCC(=O)O)cc3)NC(=O)[C@H](CN)NC(=O)CSC[C@@H](C(N)=O)NC(=O)[C@H](CCC(N)=O)NC(=O)[C@H](C(C)C)NC(=O)[C@H](CC3CCCCC3)NC(=O)[C@H](CCN)NC(=O)[C@@H](CC(C)C)NC(=O)[C@@H]3CCCCN3C(=O)[C@H](Cc3ccc(OCC(=O)O)cc3)NC(=O)[C@H](Cc3ccc(-c4ccccc4)cc3)NC(=O)[C@H](Cc3ccc(OCC(=O)O)cc3)NC2=O)c1` [Compound 1896] ({CH2CO}-[Dap]Y(Carboxymethyl)D[Phe(3-Me)]Y(Carboxymethyl)[Bip]Y(Carboxymethyl)[Pip][dL][Dab][Cha]VQC-NH2; thioether N-14), the IC50 turned out to be 0.19 µM.

Turning to `Cc1cccc(C[C@@H]2NC(=O)[C@H](CC(=O)O)NC(=O)[C@H](Cc3ccc(OCC(=O)O)cc3)NC(=O)[C@H](Cc3ccncc3)NC(=O)CSC[C@@H](C(=O)N[C@@H](CCN)C(N)=O)NC(=O)[C@H](CCC(=O)O)NC(=O)[C@H](C(C)(C)O)NC(=O)[C@H](CC3CCCCC3)NC(=O)[C@H](CCN)NC(=O)[C@@H](CC(C)C)NC(=O)[C@H](C)N(C)C(=O)[C@H](Cc3ccc(OCC(=O)O)cc3)NC(=O)[C@H](Cc3ccc(-c4ccccc4)cc3)NC(=O)[C@H](Cc3ccc(C(=O)O)cc3)NC2=O)c1` [Compound 2189] ({CH2CO}-[4Pal]Y(Carboxymethyl)D[Phe(3-Me)][Phe(4-COOH)][Bip]Y(Carboxymethyl)[NMeA][dL][Dab][Cha][Val(3-OH)]EC[Dab]-NH2; thioether N-14), the IC50 came out at 0.03 µM.

For the compound `CC(C)C[C@@H]1NC(=O)[C@H](Cc2c[nH]c3ccccc23)NC(=O)[C@H](CC(=O)O)NC(=O)[C@H](Cc2ccc(O)cc2)NC(=O)[C@H](Cc2ccccc2)NC(=O)CSC[C@@H](C(=O)NCC(N)=O)NC(=O)[C@H](CO)NC(=O)[C@H](C(C)C)NC(=O)[C@H](CC(C)C)NC(=O)[C@H](CC(N)=O)NC(=O)[C@@H](CC(C)C)NC(=O)[C@H](C)N(C)C(=O)[C@H](CCCNC(N)=O)NC(=O)[C@H](Cc2ccc(-c3ccccc3)cc2)NC1=O` [Compound 1509] ({CH2CO}-FYDWL[Bip][Cit][NMeA][dL]NLVSCG-NH2; thioether N-14), the IC50 amounted to 0.02 µM.
